This is an account of results in patent publication US12421211B2, “Heterocyclic compounds” (Hoffmann-La Roche Inc., priority 2021, dated 2025).

Structures can show the parent of a compound that is named as a salt.

In the test the test system is Acinetobacter baumannii ATCC17961. Description: Antimicrobial susceptibility testing: 90% growth inhibitory concentration (IC90) determination. It counts as cell-based. The following applies: Acinetobacter baumannii, ATCC17961, 16 h, 90% growth inhibitory concentration, Acinetobacter baumannii ATCC17961, Iso-Sensitest broth, OD 600 nm over 16 h; read-out: ATCC 17961 IC90. A digest of the protocol:
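A. baumannii ATCC17961 at ~5×10^5 CFU/ml in Iso-Sensitest broth exposed to 10-point twofold dilutions (e.g. 50–0.097 μM final), 35±2° C. OD600 read every 20 minutes over 16h; IC50 and IC90 derived from inhibition during logarithmic growth.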

As usually defined, the IC90 is the concentration at which the effect reaches the 90% level.

In the case of `COc1ccc(NC(=O)Cn2cc(-c3ccc(-c4cnc(C(=O)Nc5ccc(C(=O)N6CCN(C(=O)C7CC[N+](C)(C)CC7)CC6)c(Cl)c5)n4C)c(F)c3F)c(C)n2)nc1` [Example G28, N-[3-chloro-4-[4-(1,1-dimethylpiperidin-1-ium-4-carbonyl)piperazine-1-carbonyl]phenyl]-5-[2,3-difluoro-4-[1-[2-[(5-methoxy-2-pyridyl)amino]-2-oxo-ethyl]-3-methyl-pyrazol-4-yl]phenyl]-1-methyl-imidazole-2-carboxamide; formate], the IC90 came out at 88 nM. `Cc1nn(CC(=O)N2CCCCC2)cc1-c1ccc(-c2cnc(C(=O)Nc3ccc(C(=O)N4CCN(C(=O)C5CC[N+](C)(C)CC5)CC4)c(Cl)c3)n2C)c(F)c1F` [Example G29, N-[3-chloro-4-[4-(1,1-dimethylpiperidin-1-ium-4-carbonyl)piperazine-1-carbonyl]phenyl]-5-[2,3-difluoro-4-[3-methyl-1-[2-oxo-2-(1-piperidyl)ethyl]pyrazol-4-yl]phenyl]-1-methyl-imidazole-2-carboxamide; formate]: the IC90 was determined as 330 nM. Regarding `Cc1nn(CC(=O)Nc2ccc(C(=O)N3CC[N+](C)(C)CC3)cc2)cc1-c1ccc(-c2cnc(C(=O)Nc3ccc(C(=O)N4CCN(C(=O)C5CC[N+](C)(C)CC5)CC4)c(Cl)c3)n2C)c(F)c1F` [Example G30, N-[3-chloro-4-[4-(1,1-dimethylpiperidin-1-ium-4-carbonyl)piperazine-1-carbonyl]phenyl]-5-[4-[1-[2-[4-(4,4-dimethylpiperazin-4-ium-1-carbonyl)anilino]-2-oxo-ethyl]-3-methyl-pyrazol-4-yl]-2,3-difluoro-phenyl]-1-methyl-imidazole-2-carboxamide; diformate], the IC90 came to 1000 nM.

Regarding `Cc1nn(CC(=O)Nc2ccc(F)nn2)cc1-c1ccc(-c2cnc(C(=O)Nc3ccc(C(=O)N4CCN(C(=O)C5CC[N+](C)(C)CC5)CC4)c(Cl)c3)n2C)c(F)c1F` [Example G31, N-[3-chloro-4-[4-(1,1-dimethylpiperidin-1-ium-4-carbonyl)piperazine-1-carbonyl]phenyl]-5-[2,3-difluoro-4-[1-[2-[(6-fluoropyridazin-3-yl)amino]-2-oxo-ethyl]-3-methyl-pyrazol-4-yl]phenyl]-1-methyl-imidazole-2-carboxamide; formate], the IC90 was found to be 140 nM. Turning to `Cc1nn(CC(=O)Nc2ccnnc2)cc1-c1ccc(-c2cnc(C(=O)Nc3ccc(C(=O)N4CCN(C(=O)C5CC[N+](C)(C)CC5)CC4)c(Cl)c3)n2C)c(F)c1F` [Example G33, N-[3-chloro-4-[4-(1,1-dimethylpiperidin-1-ium-4-carbonyl)piperazine-1-carbonyl]phenyl]-5-[2,3-difluoro-4-[3-methyl-1-[2-oxo-2-(pyridazin-4-ylamino)ethyl]pyrazol-4-yl]phenyl]-1-methyl-imidazole-2-carboxamide; formate], the IC90 was 440 nM. Next, `Cc1nn(CC(=O)Nc2ccc(C#N)nc2)cc1-c1ccc(-c2cnc(C(=O)Nc3ccc(C(=O)N4CCN(C(=O)C5CC[N+](C)(C)CC5)CC4)c(Cl)c3)n2C)c(F)c1F` [Example G34, N-[3-chloro-4-[4-(1,1-dimethylpiperidin-1-ium-4-carbonyl)piperazine-1-carbonyl]phenyl]-5-[4-[1-[2-[(6-cyano-3-pyridyl)amino]-2-oxo-ethyl]-3-methyl-pyrazol-4-yl]-2,3-difluoro-phenyl]-1-methyl-imidazole-2-carboxamide; formate]: 68 nM.

`Cc1c(-c2ccc(-c3cnc(C(=O)Nc4ccc(C(=O)N5CCN(C(=O)C6CC[N+](C)(C)CC6)CC5)c(Cl)c4)n3C)c(F)c2F)cnn1CCNC(=O)c1ccccn1` [Example H1, N-[2-[4-[4-[2-[[3-chloro-4-[4-(1,1-dimethylpiperidin-1-ium-4-carbonyl)piperazine-1-carbonyl]phenyl]carbamoyl]-3-methyl-imidazol-4-yl]-2,3-difluoro-phenyl]-5-methyl-pyrazol-1-yl]ethyl]pyridine-2-carboxamide formate]: the IC90 was 150 nM. Next, `Cc1nn(CCNC(=O)c2ccccn2)cc1-c1ccc(-c2cnc(C(=O)Nc3ccc(C(=O)N4CCN(C(=O)C5CC[N+](C)(C)CC5)CC4)c(Cl)c3)n2C)c(F)c1F` [Example H2, N-[2-[4-[4-[2-[[3-chloro-4-[4-(1,1-dimethylpiperidin-1-ium-4-carbonyl)piperazine-1-carbonyl]phenyl]carbamoyl]-3-methyl-imidazol-4-yl]-2,3-difluoro-phenyl]-3-methyl-pyrazol-1-yl]ethyl]pyridine-2-carboxamide; formate]: 190 nM; `Cc1nn(CCNS(=O)(=O)c2ccc(F)cc2)cc1-c1ccc(-c2cnc(C(=O)Nc3ccc(C(=O)N4CCN(C(=O)C5CC[N+](C)(C)CC5)CC4)c(Cl)c3)n2C)c(F)c1F` [Example H3, N-[3-chloro-4-[4-(1,1-dimethylpiperidin-1-ium-4-carbonyl)piperazine-1-carbonyl]phenyl]-5-[2,3-difluoro-4-[1-[2-[(4-fluorophenyl)sulfonylamino]ethyl]-3-methyl-pyrazol-4-yl]phenyl]-1-methyl-imidazole-2-carboxamide; formate]: 180 nM; `Cc1c(-c2ccc(-c3cnc(C(=O)Nc4ccc(C(=O)N5CCN(C(=O)C6CC[N+](C)(C)CC6)CC5)c(Cl)c4)n3C)c(F)c2F)cnn1CCNC(=O)NC(C)(C)C` [Example H4, 5-[4-[1-[2-(tert-butylcarbamoylamino)ethyl]-5-methyl-pyrazol-4-yl]-2,3-difluoro-phenyl]-N-[3-chloro-4-[4-(1,1-dimethylpiperidin-1-ium-4-carbonyl)piperazine-1-carbonyl]phenyl]-1-methyl-imidazole-2-carboxamide; formate]: 160 nM. Next, `Cc1nn(CCNC(=O)NC(C)(C)C)cc1-c1ccc(-c2cnc(C(=O)Nc3ccc(C(=O)N4CCN(C(=O)C5CC[N+](C)(C)CC5)CC4)c(Cl)c3)n2C)c(F)c1F` [Example H5, 5-[4-[1-[2-(tert-butylcarbamoylamino)ethyl]-3-methyl-pyrazol-4-yl]-2,3-difluoro-phenyl]-N-[3-chloro-4-[4-(1,1-dimethylpiperidin-1-ium-4-carbonyl)piperazine-1-carbonyl]phenyl]-1-methyl-imidazole-2-carboxamide; formate]: 170 nM. Next, `Cc1c(-c2ccc(-c3cnc(C(=O)Nc4ccc(C(=O)N5CCN(C(=O)C6CC[N+](C)(C)CC6)CC5)c(Cl)c4)n3C)c(F)c2F)cnn1CCNC(=O)Nc1ccccn1` [Example H6, N-[3-chloro-4-[4-(1,1-dimethylpiperidin-1-ium-4-carbonyl)piperazine-1-carbonyl]phenyl]-5-[2,3-difluoro-4-[5-methyl-1-[2-(2-pyridylcarbamoylamino)ethyl]pyrazol-4-yl]phenyl]-1-methyl-imidazole-2-carboxamide; formate]: 170 nM; `Cc1nn(CCNC(=O)Nc2ccccn2)cc1-c1ccc(-c2cnc(C(=O)Nc3ccc(C(=O)N4CCN(C(=O)C5CC[N+](C)(C)CC5)CC4)c(Cl)c3)n2C)c(F)c1F` [Example H7, N-[3-chloro-4-[4-(1,1-dimethylpiperidin-1-ium-4-carbonyl)piperazine-1-carbonyl]phenyl]-5-[2,3-difluoro-4-[3-methyl-1-[2-(2-pyridylcarbamoylamino)ethyl]pyrazol-4-yl]phenyl]-1-methyl-imidazole-2-carboxamide; formate]: 190 nM. As for `Cc1nn(CCNC(=O)N2CCCC2)cc1-c1ccc(-c2cnc(C(=O)Nc3ccc(C(=O)N4CCN(C(=O)C5CC[N+](C)(C)CC5)CC4)c(Cl)c3)n2C)c(F)c1F` [Example H8, N-[3-chloro-4-[4-(1,1-dimethylpiperidin-1-ium-4-carbonyl)piperazine-1-carbonyl]phenyl]-5-[2,3-difluoro-4-[3-methyl-1-[2-(pyrrolidine-1-carbonylamino)ethyl]pyrazol-4-yl]phenyl]-1-methyl-imidazole-2-carboxamide; formate], the IC90 stood at 540 nM.

Turning to `COc1ccccc1-c1[nH]ncc1-c1ccc(-c2cnc(C(=O)Nc3ccc(C(=O)N4CCN(C(=O)C5CC[N+](C)(C)CC5)CC4)c(Cl)c3)n2C)c(F)c1F` [Example I4, N-[3-chloro-4-[4-(1,1-dimethylpiperidin-1-ium-4-carbonyl)piperazine-1-carbonyl]phenyl]-5-[2,3-difluoro-4-[5-(2-methoxyphenyl)-1H-pyrazol-4-yl]phenyl]-1-methyl-imidazole-2-carboxamide; formate], the IC90 turned out to be 1500 nM. With `Cn1c(-c2ccc(-c3cn[nH]c3C3CCOCC3)c(F)c2F)cnc1C(=O)Nc1ccc(C(=O)N2CCN(C(=O)C3CC[N+](C)(C)CC3)CC2)c(Cl)c1` [Example I6, N-[3-chloro-4-[4-(1,1-dimethylpiperidin-1-ium-4-carbonyl)piperazine-1-carbonyl]phenyl]-5-[2,3-difluoro-4-(5-tetrahydropyran-4-yl-1H-pyrazol-4-yl)phenyl]-1-methyl-imidazole-2-carboxamide; formate] the figure was 820 nM. Next, `Cn1c(-c2ccc(-c3cn[nH]c3C3=CCOCC3)c(F)c2F)cnc1C(=O)Nc1ccc(C(=O)N2CCN(C(=O)C3CC[N+](C)(C)CC3)CC2)c(Cl)c1` [Example I7, N-[3-chloro-4-[4-(1,1-dimethylpiperidin-1-ium-4-carbonyl)piperazine-1-carbonyl]phenyl]-5-[4-[5-(3,6-dihydro-2H-pyran-4-yl)-1H-pyrazol-4-yl]-2,3-difluoro-phenyl]-1-methyl-imidazole-2-carboxamide;formate]: 760 nM; `Cc1n[nH]cc1-c1ccc(-c2cnc(C(=O)Nc3ccc(C(=O)N4CCN(C(=O)C5CC[N+](C)(CC6CNC6)CC5)CC4)c(Cl)c3)n2C)c(F)c1F` (stereo not drawn) [Example J1, N-[4-[4-[1-(azetidin-3-ylmethyl)-1-methyl-piperidin-1-ium-4-carbonyl]piperazine-1-carbonyl]-3-chloro-phenyl]-5-[2,3-difluoro-4-(3-methyl-1H-pyrazol-4-yl)phenyl]-1-methyl-imidazole-2-carboxamide; formate]: 22 nM.
